The values that follow come from paper PMC3088537, “Production, purification, sequencing and activity spectra of mutacins D-123.1 and F-59.1” (BMC Microbiology, 2011).

The test system of series [1] is Micrococcus luteus ATCC 272. The series can be described thus: Inhibitory effect of mutacin F-59.1 on viable count (time-kill). It is filed as cell-based. Here is the method:
One milliliter of active preparation (1600 AU/mL) adjusted to pH 7.0 was filter sterilised then added to 10 mL of an early-log-phase culture of Micrococcus luteus ATCC 272 grown in TSBYE. Bacterial culture in TSBYE was used as a negative control. The viable count in CFU/mL was determined at intervals for up to 24 h for samples and control during incubation at 37°C by plating 100 μL of an appropriate dilution in peptone water (0.1%) on TSAYE incubated at 37°C at least 24 h.

In series [2] the test system is L. monocytogenes ATCC 700302 ScottA. The series is described as follows: Inhibitory spectrum, critical dilution with spot test. Conditions: purified mutacin, 5 μL spotted on soft agar lawn on TSAYE; reciprocal of highest dilution showing inhibition zone. It is filed as cell-based, Listeria monocytogenes. As to the method:
(§1) Streptococcus mutans 59.1 and 123.1 produce mutacins F-59.1 and D-123.1 respectively. Micrococcus luteus ATCC 272 (ATCC, Manassas, VA, USA) was used as the indicator strain for the mutacin activity assays. All bacteria were routinely grown aerobically at 37°C in TSBYE made of TSB (Difco laboratories, Detroit, MI, USA) supplemented with 0.3% yeast extract (Becton Dickinson & Co., Cockeysville, MD, USA) or on TSAYE plates made of TSA (Difco) enriched with 0.3% yeast extract. Lactobacillus salivarius strain (provided by Sylvain Moineau, Université Laval, Québec, QC, Canada) was cultivated aerobically at 30°C in MRS medium (Oxoid, Nepean, ON, Canada). Other bacterial strains used for the inhibitory spectra determination are described in Mota-Meira et al. and Morency et al.. Staphylococcus carnosus was obtained from the strain collection of the Department of Microbiology, Biochemistry and Bioinformatics (Université Laval).
(§2) Mutacin activity was determined by the spot test using Micrococcus luteus ATCC 272 as sensitive strain where two-fold dilutions were prepared in acidified (pH 2) peptone water (0.5%). Antibacterial activity spectra of purified mutacins was tested against a panel of bacterial strains using the critical dilution method combined with the spot test method as described previously. Briefly, overnight cultures of test strains in TSBYE were diluted in fresh broth before inoculating 5 mL of soft agar (0.75%) in order to obtain confluent lawns of growth on TSAYE plates. Five μL of purified mutacins, diluted in acidified (10 mM HCl) distilled water to promote solubility of the peptides, were deposited on the lawn and allowed to dry before appropriate incubation. Mutacin activity was expressed in AU/mL and corresponds to the reciprocal of the highest dilution showing a noticeable inhibition zone on the lawn.

The test system of series [3] is L. monocytogenes FRDC 1039. The description is as above. The class given is cell-based, Listeria monocytogenes. As to conditions: purified mutacin, 5 μL spotted on soft agar lawn on TSAYE; reciprocal of highest dilution showing inhibition zone. Here is the method:
as §1, §2

In series [4] the test system is L. monocytogenes ATCC 700301 ScottA. The description is as above. It is filed as cell-based, Listeria monocytogenes. As to conditions: purified mutacin, 5 μL spotted on soft agar lawn on TSAYE; reciprocal of highest dilution showing inhibition zone. Here is the method: as §1, §2
Series [5] deals with L. monocytogenes FRDC 88571. Described as above. The class given is cell-based, Listeria monocytogenes. As to conditions: purified mutacin, 5 μL spotted on soft agar lawn on TSAYE; reciprocal of highest dilution showing inhibition zone. As to the method: as §1, §2
Series [6] can be described thus: Hydrophobic chromatography elution (Sep-Pak t-C18, methanol steps) as measure of hydrophobicity. It is filed as physicochemical. As to conditions: Sep-Pak t-C18 cartridge, water:methanol steps of 10% from 0 to 100% in 10 mM HCl; used as indication of hydrophobicity. Here is the method:
Purification of the two mutacins was achieved by two hydrophobic chromatography steps as previously described by replacing TFA with HCl (10 mM). Briefly, the active preparation was loaded on a Sep-Pak® Vac 35 cc (10 g) t-C18 Cartridge (Waters Corporation, Milford, MA, USA). Cartridges were first equilibrated with 500 mL of methanol followed by 500 mL of deionized distilled water. Antibacterial compounds were eluted with successive steps of 500 mL of water:methanol mixtures increasing the gradient of methanol by 10% from 0 to 100% in 10 mM HCl. This was carried out at a flow rate of 1 mL/min and UV detection at 214 nm. The final purification step was carried out by reverse phase chromatography (RP)-HPLC analysis (Beckman Gold Model, Coulter Canada Inc., Mississauga, ON, Canada) using an analytical C18 column (Luna 5 μ C18(2), 250 × 4.6 mm, 4 × 3.0 mm, Phenomenex, Torrance, CA, USA). Elution was carried out with solvent A (5% acetonitrile, 10 mM HCl) and solvent B (60% acetonitrile, 10 mM HCl) and recorded at 214 nm. The following program of elution was developed: 0 to 3 min, constant 100% A; 3 to 15 min, a linear gradient from 100% A to 100% B; 15 to 20 min, constant 100% B; 20 to 23 min, a linear gradient from 100% B to 100% A. A flow rate of 1 mL/min was used. […] Protein concentration in active fractions was determined using the BioRad DC protein assay (BioRad, Mississauga, ON, Canada).

Series [7] concerns Micrococcus luteus ATCC 272. The series can be described thus: Mutacin activity assay (spot test) of preparations during production and purification. The class given is cell-based. As to the method:
as §1
Purification of the two mutacins was achieved by two hydrophobic chromatography steps as previously described by replacing TFA with HCl (10 mM). Briefly, the active preparation was loaded on a Sep-Pak® Vac 35 cc (10 g) t-C18 Cartridge (Waters Corporation, Milford, MA, USA). Cartridges were first equilibrated with 500 mL of methanol followed by 500 mL of deionized distilled water. Antibacterial compounds were eluted with successive steps of 500 mL of water:methanol mixtures increasing the gradient of methanol by 10% from 0 to 100% in 10 mM HCl. This was carried out at a flow rate of 1 mL/min and UV detection at 214 nm. The final purification step was carried out by reverse phase chromatography (RP)-HPLC analysis (Beckman Gold Model, Coulter Canada Inc., Mississauga, ON, Canada) using an analytical C18 column (Luna 5 μ C18(2), 250 × 4.6 mm, 4 × 3.0 mm, Phenomenex, Torrance, CA, USA). Elution was carried out with solvent A (5% acetonitrile, 10 mM HCl) and solvent B (60% acetonitrile, 10 mM HCl) and recorded at 214 nm. The following program of elution was developed: 0 to 3 min, constant 100% A; 3 to 15 min, a linear gradient from 100% A to 100% B; 15 to 20 min, constant 100% B; 20 to 23 min, a linear gradient from 100% B to 100% A. A flow rate of 1 mL/min was used. The column was maintained at 39°C with a column heater. Active fractions were manually collected, subsequently dried in a Speed-Vac® concentrator (Model SC110A, Savant Instrument Inc. Farmingdale, NY, USA) and then kept at -20°C until processing. Protein concentration in active fractions was determined using the BioRad DC protein assay (BioRad, Mississauga, ON, Canada).
as §2

For series [8], the system named is Lactobacillus salivarius SMQ 876. The series is described as follows: Inhibitory spectrum, critical dilution with spot test. It is filed as cell-based. Conditions: purified mutacin, 5 μL spotted on soft agar lawn; reciprocal of highest dilution showing inhibition zone. Here is the method: as §1, §2
Series [9] deals with Enterococcus faecium ATCC 19434. The series is described as above. Conditions: purified mutacin, 5 μL spotted on soft agar lawn on TSAYE; reciprocal of highest dilution showing inhibition zone. It is filed as cell-based. Here is the method:
as §1, §2

A further series relates to Streptococcus salivarius. The series is described as above. It is filed as cell-based. As to conditions: purified mutacin, 5 μL spotted on soft agar lawn on TSAYE; reciprocal of highest dilution showing inhibition zone. As to the method: as §1, §2
The subject of series [10] is Staphylococcus aureus ATCC 6538. The description is as above. The class given is cell-based. Conditions: purified mutacin, 5 μL spotted on soft agar lawn on TSAYE; reciprocal of highest dilution showing inhibition zone. As to the method: as §1, §2
Series [11] has as its system Listeria murrayi ATCC 25420. Described as above. It is filed as cell-based. As to conditions: purified mutacin, 5 μL spotted on soft agar lawn on TSAYE; reciprocal of highest dilution showing inhibition zone. Here is the method:
as §1, §2

Marks after values point to notes of the source that are not given here. Bridge positions count the residues as written; N and C are the ends. Ends that are not written are not given here.

“KYYGNGVTCGKHSCSVDWSKATTNI (disulfide 9-14 (inferred)) [mutacin F-59.1, pediocin-like (class IIa) bacteriocin of 25 amino acids produced by Streptococcus mutans 59.1; UniProt P86386]”: the “Viable count of M. luteus ATCC 272 after addition of purified mutacin” value in series [1] (160 AU/mL (1 mL of 1600 AU/mL, pH 7.0, added to 10 mL early-log culture in TSBYE), 37°C, followed up to 24 h, CFU/mL by plating) is reported as “dropped to zero”. Also, the “Mode of action (bactericidal or not)” value in series [1] (160 AU/mL, M. luteus ATCC 272, 24 h incubation) is listed as “bactericidal”. Also, the “Activity of mutacin against L. monocytogenes ATCC 700302 ScottA” value in [2] is given as 200^b AU/mL. Besides, the “Activity of mutacin against L. monocytogenes FRDC 1039” value in series [3] is 200^b AU/mL. In addition, the “Activity of mutacin against L. monocytogenes ATCC 700301 ScottA” value in series [4] is 200^b AU/mL. In [5], the “Activity of mutacin against L. monocytogenes FRDC 88571” value is reported as 200^b AU/mL. The “Elution gradient at which active fractions were recovered (methanol in 10 mM HCl)” value in series [6] is 50%-60%. The Activity came to 16000 AU/mL in series [7] (step: C18 RP-HPLC (purified), spot test on M. luteus ATCC 272, two-fold dilutions); 3200 AU/mL in series [7] (step: Sep-Pak C18, spot test on M. luteus ATCC 272, two-fold dilutions); 400 AU/mL in [7] (step: culture supernatant (crude preparation), spot test on M. luteus ATCC 272, two-fold dilutions in acidified (pH 2) peptone water). Further, the “Specific activity (final, purified mutacin)” value in [7] (step: C18 RP-HPLC, per mg total protein (BioRad DC assay)) is on record as 3.2 × 10^5 AU/mg. In addition, the Specific activity is on record as 101 AU/mg in series [7] (step: Sep-Pak C18, per mg total protein (BioRad DC assay)) and 40 AU/mg in series [7] (step: culture supernatant, per mg total protein (BioRad DC assay)). Also, the “Activity of mutacin against Lactobacillus salivarius SMQ 876” value in [8] turned out to be 0 AU/mL. Besides, in series [9], the “Activity of mutacin against Enterococcus faecium ATCC 19434” value amounted to 1600 AU/mL. The “Activity of mutacin against Streptococcus salivarius ATCC 25923” value in the series on Streptococcus salivarius was 800 AU/mL. Moreover, in [10], the “Activity of mutacin against Staphylococcus aureus ATCC 6538” value is reported as 0 AU/mL. In [11], the “Activity of mutacin against Listeria murrayi ATCC 25420” value is given as 200^b AU/mL.
